# Laboratory results: ChEMBL document CHEMBL5131405, “Inhibition of ALK2 with bicyclic pyridyllactams” (Bioorg Med Chem Lett, 2022)
# Key:
# Activin receptor type-1 [1] = target: T1, Activin receptor type-1 (Homo sapiens, UniProt Q04771); assay: Inhibition of ALK2 in human HeLa cells assessed as inhibition of SMAD1 phosphorylation; assay type: cell-based
# T1 sequence (Q04771 whole entry): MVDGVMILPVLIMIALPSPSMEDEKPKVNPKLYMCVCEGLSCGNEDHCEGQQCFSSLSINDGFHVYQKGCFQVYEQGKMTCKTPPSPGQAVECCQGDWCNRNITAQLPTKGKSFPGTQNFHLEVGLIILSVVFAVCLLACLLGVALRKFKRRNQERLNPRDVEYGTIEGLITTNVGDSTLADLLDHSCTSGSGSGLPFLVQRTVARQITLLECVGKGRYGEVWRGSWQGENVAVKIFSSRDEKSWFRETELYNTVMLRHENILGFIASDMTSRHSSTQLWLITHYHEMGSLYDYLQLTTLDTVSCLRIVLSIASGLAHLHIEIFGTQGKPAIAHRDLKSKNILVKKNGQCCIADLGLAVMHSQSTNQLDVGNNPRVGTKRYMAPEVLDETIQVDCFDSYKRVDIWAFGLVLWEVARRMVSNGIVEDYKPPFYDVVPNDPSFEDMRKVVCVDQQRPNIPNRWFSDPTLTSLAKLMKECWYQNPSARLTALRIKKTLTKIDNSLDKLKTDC
# Activin receptor type-1 [2] = target: T1, Activin receptor type-1; assay: Inhibition of ALK2 (unknown origin)
# [3] = target: T2, Bone morphogenetic protein receptor type-1A (Homo sapiens, UniProt P36894); assay: Inhibition of ALK3 (unknown origin)
# [4] = target: Activin receptor type-1-like (Homo sapiens, UniProt P37023); assay: Inhibition of ALK1 (unknown origin); assay type: toxicity
# Activin receptor type-1 [5] = target: T1, Activin receptor type-1; assay: Inhibition of human recombinant ALK2 (172 to 499 residues) expressed in baculovirus-infected insect cells by ADP-Glo kinase assay
# [6] = target: T2, Bone morphogenetic protein receptor type-1A; assay: Inhibition of human recombinant ALK3 (198 to 525 residues) expressed in baculovirus-infected insect cells by ADP-Glo kinase assay
# T2 sequence (P36894 whole entry): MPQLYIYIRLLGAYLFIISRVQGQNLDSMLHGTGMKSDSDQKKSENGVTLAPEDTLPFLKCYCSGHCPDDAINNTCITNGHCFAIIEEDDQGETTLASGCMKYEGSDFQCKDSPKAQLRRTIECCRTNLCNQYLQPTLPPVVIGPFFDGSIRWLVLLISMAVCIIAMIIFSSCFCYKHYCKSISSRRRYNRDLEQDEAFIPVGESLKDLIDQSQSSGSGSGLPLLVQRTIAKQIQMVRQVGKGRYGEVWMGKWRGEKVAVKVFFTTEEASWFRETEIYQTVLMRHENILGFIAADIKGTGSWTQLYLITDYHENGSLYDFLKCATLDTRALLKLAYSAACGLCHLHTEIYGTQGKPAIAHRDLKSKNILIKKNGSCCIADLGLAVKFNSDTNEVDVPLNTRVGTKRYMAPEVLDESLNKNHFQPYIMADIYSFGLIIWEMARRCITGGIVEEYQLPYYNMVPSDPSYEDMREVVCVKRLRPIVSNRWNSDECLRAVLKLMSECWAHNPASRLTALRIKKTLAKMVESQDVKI
# Activin receptor type-1-like, sequence (P37023 whole entry, the tested form may be a part): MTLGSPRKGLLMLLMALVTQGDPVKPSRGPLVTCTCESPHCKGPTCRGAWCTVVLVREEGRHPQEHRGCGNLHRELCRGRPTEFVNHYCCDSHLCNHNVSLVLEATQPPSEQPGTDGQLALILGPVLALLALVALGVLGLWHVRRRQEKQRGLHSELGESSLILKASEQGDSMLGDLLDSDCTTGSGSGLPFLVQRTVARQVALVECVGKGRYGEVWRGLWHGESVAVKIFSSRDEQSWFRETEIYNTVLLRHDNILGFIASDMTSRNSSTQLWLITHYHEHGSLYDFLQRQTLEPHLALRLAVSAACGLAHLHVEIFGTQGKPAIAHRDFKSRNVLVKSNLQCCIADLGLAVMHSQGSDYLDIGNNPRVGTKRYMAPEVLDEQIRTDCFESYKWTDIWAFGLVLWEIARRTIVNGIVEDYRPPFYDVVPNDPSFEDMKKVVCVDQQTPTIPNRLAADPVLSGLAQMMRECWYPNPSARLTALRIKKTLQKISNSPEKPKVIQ
Compound,IC50 (Activin receptor type-1 [1]) [nM],IC50 (Activin receptor type-1 [2]) [nM],IC50 [3] [nM],IC50 [4] [nM],IC50 (Activin receptor type-1 [5]) [nM],IC50 [6] [nM]
Nc1ncc(-c2cnn(C3CCNCC3)c2)c2c1C(=O)N(C1C3CC4CC(C3)CC1C4)CC2 (stereo unspecified),415,5.3,400,27,,
C[C@@H]1CCCN1Cc1ccc(-c2cnc(N)c(C(=O)N[C@H]3CC[C@](C)(O)CC3)c2)cc1F,,,,,3.6,560
